Results reported in publication PMC4728560 (Scientific Reports, 2016).

Tested on: Bcl-xL inhibition of cBidmt1/Bax
Test: In vitro reconstitution liposome permeabilization, cBidmt1/Bax with Bcl-xL
Format: biochemical
Conditions: ANTS/DPX liposomes, 100 nM Bax, 20 nM cBidmt1, pre-incubation pH 9, 45 min, 37 °C, 5 h, pH 7
Excerpt: This purified assay system measures direct interactions in which full-length untagged Bcl-xL inhibits permeabilization by binding full-length caspase 8 cleaved Bid (cBid) and/or full-length untagged Bax, thereby preventing Bax oligomerization in membranes. […] In these assays liposome permeabilization by activated Bax releases the entrapped fluorophore/quencher pair 8-aminonaphthalene-1,3,6-trisulfonic acid (ANTS)/p-xylene-bispyridinium (DPX), resulting in a measurable increase of fluorescence.
(A–E) in vitro reconstitution assay on liposome permeabilization. […] The treated Bcl-xL was then added to reactions containing ANTS-DPX liposomes, 100 nM Bax and 20 nM of either cBid (A,B) or cBidmt1(C,D) at pH 7. Liposome permeabilization was quantified by fluorescence after 5h incubation at 37 °C where 100% release was defined as the fluorescence change due to lipid solubilization with 1% Triton X-100. […] Error bars, std. dev. n = 3. […] Cyto c extra-mito: in the supernatant, analysed by Western blot. […]
Figure 10 A,B) or cBid mt1 (Supplementary Figure 10 C,D) at pH 7 to quantify the activity of Bcl-xL inhibition of liposome permeablization. […]
then added to reactions containing ANTS-DPX liposomes, 100nM Bax and 20nM of either c Bid (A, C) or cBid mt1(B, D) at pH 7 and liposome permeabilization was quantified by fluorescence […]

TCTP: Translationally Controlled Tumor Protein (TCTP/tpt1), recombinant full-length
effect on Bcl-xL inhibition of cBidmt1/Bax-mediated liposome permeabilization: enhanced Bcl-xL inhibition
